Data: patent publication US10440955B2, “Methods comprising a biocidal polyamine” (Curza Global, LLC, priority 2013, dated 2019)
In brackets after ≈: the same amount, converted by molar mass. Read-outs that look alike come from different tables or passages of the source.

Assays:
[1] = tested on: MRSA; assay: MIC against MRSA (as defined by CLSI); type: cell-based; conditions: Staphylococcus aureus, FIG. 25
Protocol: To determine the MIC of the polyamine chains alone and the synthesized compounds against MRSA and P. aeruginosa ATCC 27853, a modified protocol from the Clinical and Laboratory Standards Institute (CLSI) guideline M26-A was used. […] All data was collected using cation adjusted MHB for standardization.
As mentioned, MRSA and P. aeruginosa ATCC 27853 were grown on Columbia blood agar plates prior to experimentation. From the blood agar plates, a 0.5 McFarland standard was made of each isolate. This equated to approximately 5×10^7 cells/mL for the MRSA isolate and approximately 3×10^7 cells/mL for the P. aeruginosa ATCC 27853 isolate. Of the 0.5 McFarland stock solution, 50 μL were added to MHB. […] All tests were performed such that a final volume of 5 mL of MHB were obtained. This provided a final bacterial concentration of approximately 5×10^5 cells/mL.
Each sample was incubated in glass test tubes at 37° C. for 24 hours, then plated in duplicate on tryptic soy agar (TSA) using a 10-fold dilution series. TSA plates were further incubated 24 hours at 37° C. The number of colony forming units (CFU) that grew were counted in order to calculate the number of bacteria that were present per mL in the original MHB solution.

[2] = tested on: MRSA; assay: MIC, 96-well CAMHB, 10^5 to 10^2 CFU/mL in 24 hours; type: cell-based, Staphylococcus aureus; conditions: Staphylococcus aureus, MRSA, Table 5; read-out: MIC (MRSA)
In short: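 Isolates diluted from 0.5 McFarland in CAMHB to ~5×10^5 CFU/mL, exposed to varying polyamine concentrations 24 h at 37 °C. Well contents plated on TSA, incubated 24 h at 37 °C and surviving CFU/mL counted; n=8 per concentration.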

[3] = tested on: P. aeruginosa; assay: as above; type: cell-based, Pseudomonas aeruginosa; conditions: Pseudomonas aeruginosa
In short: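 Broth microdilution in CAMHB with about 5×10^5 CFU/mL inoculum, incubated 24 h at 37 °C with graded polyamine compound concentrations. Surviving CFU/mL determined by plating each well on TSA for 24 h at 37 °C; n=8 per concentration.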

[4] = tested on: biofilm formation; conditions: study by Losick and co-workers (Kolodkin-Gal et al., Cell 149 (2012)); cited from earlier work
[5] = tested on: P. aeruginosa biofilms; assay: MBEC, MBEC Inoculation Tray (Innovotech), to 10^2 CFU/peg in 24 hours; type: cell-based; conditions: Pseudomonas aeruginosa; Table 3A c5; group head missing, probably MBEC; read-out: MICs (μg/mL): P. aeruginosa (second P. aeruginosa)
Text: To determine the MBEC of each polyamine compound, the MBEC Inoculation Tray by Innovotech, formerly known as the Calgary biofilm device, was used. Within this device, biofilms grow on the surface of polystyrene pegs, 96 of which are attached to a lid. These pegs are inserted into a flat bottom 96-well plate. In this instance, the MBEC of a molecule was defined as the concentration of compound (in μg/mL) required to reduce 10^5 or 10^6 CFU/peg (biofilm levels varied by isolate) to 10^2 CFU/peg in a 24-hour period.
Following the manufacturer's guidelines, biofilms were grown on the surface of each peg by first making a 0.5 McFarland of each isolate. The 0.5 McFarland was diluted 1:100 in CAMHB. Into each well of a flat bottom 96-well plate, 150 μL of broth were pipetted. The plate was shaken at 100 rpm for 24 hours (P. aeruginosa and A. baumannii) or 48 hours (MRSA). The pegs were then placed into a separate flat bottom 96-well plate for 10 seconds with 200 μL of phosphate buffered saline (PBS) in each well to remove nonadherent cells. The lid was then placed into a 96-well plate that contained varying concentrations of antimicrobial with 200 μL per well. The plate was incubated for 24 hours at 37° C. after which time 100 μL of broth were plated on TSA. TSA plates were incubated 24 hours at 37° C. and the number of CFU counted to calculate the CFU/peg. […]

[6] = tested on: P. aeruginosa biofilms; assay: EBEC, high number biofilms on PEEK membranes, 10^9 to 10^2 CFU/PEEK membrane in 24 hours; type: cell-based; conditions: Pseudomonas aeruginosa; Table 3B c3; group head missing; read-out: MICs (μg/mL) II: P. aeruginosa
Protocol: In addition to determining the MIC and the MBEC of polyamine compounds against planktonic bacteria and low number biofilms, our group wanted to determine the efficacy of polyamine compounds against high number biofilms. To do so, biofilms were grown on the surface of polyetheretherketone (PEEK) membranes using a membrane biofilm reactor. This reactor is similar to the CDC biofilm reactor, but rather than growing biofilms on coupon surfaces, the reactor was modified to hold PEEK membranes. In short, to grow biofilms within this system, 500 mL of brain heart infusion (BHI) broth were inoculated with 1 mL of a 0.5 McFarland. The reactor was placed on a hot plate set at 34° C. and the bacteria were grown under batch conditions for 24 hours. Following this protocol, biofilms typically grow to 10^9 CFU/PEEK membrane. […] A solution of 10% BHI was then flowed through the reactor at a rate of 6.94 mL/min for an additional 24 hours. PEEK membranes were then removed and placed into 2 mL of CAMHB that contained a desired concentration of polyamine compound or antibiotic. The EBEC was defined as the concentration of antimicrobial required to reduce a biofilm from approximately 10^9 CFU/PEEK membrane to approximately 10^2 CFU/PEEK membrane in a 24-hour period.

[7] = tested on: A. baumannii; assay: MIC, 96-well CAMHB, 10^5 to 10^2 CFU/mL in 24 hours; type: cell-based, Acinetobacter baumannii; conditions: Acinetobacter baumannii; Table 5; read-out: MIC (A. bumannii)
Protocol: To determine the MIC of polyamine compounds, the protocol described herein was used.
In brief, a 0.5 McFarland of each bacterial isolate was made. A 0.5 McFarland is a measure of turbidity in a liquid sample that contains approximately 1×10^∧8 CFU/mL. The 0.5 McFarland standard was diluted in cation adjusted Mueller Hinton Broth (CAMHB), and 50 μL of broth were added to a well of a 96-well plate. In addition, 50 μL of CAMHB that contained a desired concentration of antimicrobial were also added to the well for a final volume of 100 μL and a final concentration of approximately 5×10^4 CFU/well (which equated to approximately 5×10^5 CFU/mL). Each well contained a desired amount of polyamine compound in order to experimentally determine the MIC. Each 96-well plate was incubated at 37° C. for 24 hours. The contents of each well were plated on tryptic soy agar (TSA). TSA plates were incubated for 37° C. for 24 hours after which the number of CFU were counted and used to calculate the CFU/mL that remained after exposure to varying concentrations of compound. This procedure was repeated n=8 times for each concentration of antimicrobial.
A 0.5 McFarland of A. baumannii is made. A 0.5 McFarland is a measure of turbidity in a liquid sample that contains approximately 7.5×10^7 CFU/mL. The 0.5 McFarland standard is diluted in CAMHB and 50 μL of broth is added to a well of a 96-well plate. In addition, 50 μL of CAMHB that contains a desired concentration of antimicrobial is added to the well for a final volume of 100 μL and a final concentration of approximately 5×10^4 CFU/well (which equates to approximately 5×10^5 CFU/mL). Each well contains a desired amount of CZ compound in order to experimentally determine the MIC. Each 96-well plate is incubated at 37° C. for 24 hours. The contents of each well is plated on tryptic soy agar (TSA). TSA plates is incubated at 37° C. for 24 hours after which the number of CFUs is counted and used to calculate the CFU/mL that remain after exposure to varying concentrations of compound. This procedure is repeated n=8 times for each concentration of antimicrobial. […]

[8] = tested on: various bacterial cell cultures; assay: Antimicrobial activity of polyamines in hydrogel on agar lawns; type: cell-based; conditions: 0.5% CZ compound in 0.5% sodium hyaluronate gel, 500 uL on TSA lawn, 37 C for 24 hours
Protocol: A 0.5 McFarland standard of each bacteria was made, then individual lawns of bacteria spread onto the surface of tryptic soy agar (TSA). 500 uL of the suspended gel were placed on the center of each lawn. Plates were incubated at 37 C for 24 hours, then imaged. Images of the resulting gels are shown in FIGS. 30A to 30I show the effects of the polyamines CZ-86, CZ-100, and CZ-110 on various bacterial cell cultures.
The hydrogel that was used for those images is a LifeCore gel with 1% sodium hyaluronate (1% Sodium Hyaluronate Solution Part #82). The CZ compound was suspended in water at 1% (w/w) concentration and combined with the LifeCore gel 1:1 for a final product that contained 0.5% sodium hyaluronate and 0.5% CZ compound.

[9] = tested on: L-929 cells (ATCC CCL-1); assay: Minimal Essential Media (MEM) Elution cytotoxicity test; type: cell-based; conditions: Table 9A
In short: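 L-929 cells (ATCC CCL-1) were seeded in multiwell plates and grown to roughly 80% confluence. Test article dilutions (1:2, 1:4, 1:8, 1:16) and control extracts were applied in triplicate and incubated 48±3 hours at 37±1° C. in 5±1% CO2. Wells were scored microscopically for morphological cytotoxicity on a 0–4 scale and averaged; Pass required grade not greater than 2 per USP <87>.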

[10] = tested on: biofilms of MRSA; conditions: understanding of the inventors; no own test described; cited from earlier work
[11] = Table 5, read-out: MIC (P. aeruginosa)

| SMILES | MIC [2] | MIC [3, 11] | Results Pass/Fail ([9]; 3.125 μg/mL) | Results Pass/Fail ([9]; 6.25 μg/mL) | Results Pass/Fail ([9]; 12.5 μg/mL) | Results Pass/Fail ([9]; 25 μg/mL) | Results Pass/Fail ([9]; 1.563 (unit not given)) | biofilm dispersal effect (comparison) [10] | further results |
| --- | --- | --- | --- | --- | --- | --- | --- | --- | --- |
| NCCCNCc1ccccc1 [CZ-4, N^1-benzylpropane-1,3-diamine] | > 100 µM | > 100 µM |  |  |  |  |  |  | MIC [1]: > 1200 µg/mL |
| NCCCCNCCCN [spermidine] |  |  |  |  |  |  |  |  | concentration at which active (biofilm formation) [4]: ~1 mM |
| NC[C@H]1O[C@H](O[C@H]2[C@H](O)[C@@H](O[C@H]3O[C@H](CO)[C@@H](O)[C@H](N)[C@H]3O)[C@H](N)C[C@@H]2N)[C@H](N)C[C@@H]1O [Tobramycin, tobramycin, reference compound] |  |  |  |  |  |  |  |  | MIC ([3]; Table 3A c2, read-out: MICs (μg/mL): P. aeruginosa): 2 µg/mL; MIC [5]: 100 µg/mL (≈ 214 µM); MIC [6]: 2000 µg/mL (≈ 4280 µM) |
| NCCCNCc1cccc(CNCCCN)c1 [CZ-12] | > 100 µM | 50 to 100 µM |  |  |  |  |  |  | MIC [1]: 300 µg/mL (≈ 1200 µM) |
| CCCCCCCCNCCCNCCCNCc1cccc(CNCCCNCCCNCCCCCCCC)c1 [CZ-100, N^1,N^1′-(1,3-phenylenebis(methylene))bis(N^3-(3-(octylamino)propyl)propane-1,3-diamine)] | < 50 µM | < 50 µM | Pass (receives a passing score (Pass) if the reactivity grade is not greater than grade 2 or a mild reactivity) | Pass (receives a passing score (Pass) if the reactivity grade is not greater than grade 2 or a mild reactivity) | Pass (receives a passing score (Pass) if the reactivity grade is not greater than grade 2 or a mild reactivity) | Fail (a numerical grade greater than 2 is considered a cytotoxic effect, or a failing score (Fail)) | Pass (receives a passing score (Pass) if the reactivity grade is not greater than grade 2 or a mild reactivity) |  | MIC [7]: < 50 µM; zones of inhibition in bacterial lawns [8]: created zones of inhibition |
| N=C(NCCCCCCNC(=N)NC(=N)Nc1ccc(Cl)cc1)NC(=N)Nc1ccc(Cl)cc1.O=C(O)[C@H](O)[C@@H](O)[C@H](O)[C@H](O)CO.O=C(O)[C@H](O)[C@@H](O)[C@H](O)[C@H](O)CO [chlorhexidine gluconate, reference compound] |  |  | Pass (receives a passing score (Pass) if the reactivity grade is not greater than grade 2 or a mild reactivity) | Pass (receives a passing score (Pass) if the reactivity grade is not greater than grade 2 or a mild reactivity) | Pass (receives a passing score (Pass) if the reactivity grade is not greater than grade 2 or a mild reactivity) | Fail (a numerical grade greater than 2 is considered a cytotoxic effect, or a failing score (Fail)) | Pass (receives a passing score (Pass) if the reactivity grade is not greater than grade 2 or a mild reactivity) | not seen |  |
| CC(C)(C)CC(C)(C)c1ccc(OCCOCC[N+](C)(C)Cc2ccccc2)cc1 [benzethonium chloride] |  |  |  |  |  |  |  | not seen |  |
| O=CCCCC=O [glutaraldehyde, Glutaraldehyde, reference compound] |  |  | Pass (receives a passing score (Pass) if the reactivity grade is not greater than grade 2 or a mild reactivity) | Fail (a numerical grade greater than 2 is considered a cytotoxic effect, or a failing score (Fail)) | Fail (a numerical grade greater than 2 is considered a cytotoxic effect, or a failing score (Fail)) | Fail (a numerical grade greater than 2 is considered a cytotoxic effect, or a failing score (Fail)) | Pass (receives a passing score (Pass) if the reactivity grade is not greater than grade 2 or a mild reactivity) | not seen |  |
| NCCCNCCCN [norspermidine, N-(3-aminopropyl)propane-1,3-diamine] |  |  |  |  |  |  |  |  | concentration inhibiting biofilm formation [4]: 25 µM |
